# Measured values published in PubChem BioAssay (NCI).
#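 Results reflect a 48-hour exposure of cells in 96-well plates to compound at five concentrations. Here, GI50 denotes the concentration required for 50% inhibition of growth. TGI: total growth inhibition.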
# Experiments:
# Assay in all cases: NCI tumour cell line growth inhibition, 48 h
# A498 renal = tested on: A498 renal
# SNB-75 CNS = tested on: SNB-75 CNS
# SF-268 CNS = tested on: SF-268 CNS
# EKVX NSCLC = tested on: EKVX NSCLC
# HOP-62 NSCLC = tested on: HOP-62 NSCLC
# DU-145 prostate = tested on: DU-145 prostate
# HCC-2998 colon = tested on: HCC-2998 colon
# K-562 leukemia = tested on: K-562 leukemia
# RXF 393 renal = tested on: RXF 393 renal
# T-47D breast = tested on: T-47D breast
SMILES,GI50 (A498 renal),TGI (A498 renal),GI50 (SNB-75 CNS),TGI (SNB-75 CNS),GI50 (SF-268 CNS),TGI (SF-268 CNS),GI50 (EKVX NSCLC),TGI (EKVX NSCLC),GI50 (HOP-62 NSCLC),TGI (HOP-62 NSCLC),GI50 (DU-145 prostate),TGI (DU-145 prostate),GI50 (HCC-2998 colon),TGI (HCC-2998 colon),GI50 (K-562 leukemia),TGI (K-562 leukemia),GI50 (RXF 393 renal),TGI (RXF 393 renal),TGI (T-47D breast),GI50 (T-47D breast)
COc1cc(C2=NN(C(C)=O)C(c3cc(OC)c(OC)c(OC)c3)C2)ccc1O (centres undefined),0.26 µM,7.52 µM,0.26 µM,> 100 µM,0.539 µM,> 100 µM,1.13 µM,> 100 µM,0.571 µM,> 100 µM,0.383 µM,> 33.9 µM,0.539 µM,> 100 µM,0.261 µM,> 100 µM,,,,
COc1cc([C@@H]2c3cc4c(cc3[C@H](OC(C)=O)[C@H]3COC(=O)[C@@H]23)OCO4)cc(OC)c1OC,0.175 µM,0.583 µM,,> 100 µM,0.358 µM,,0.489 µM,> 100 µM,0.4 µM,> 100 µM,0.245 µM,0.649 µM,0.285 µM,,0.253 µM,> 100 µM,0.235 µM,0.591 µM,,
CSc1ncnc2c1ncn2CC(=O)C1CCC2C3CCC4=CC(=O)CCC4(C)C3CCC12C (centres undefined),,38.4 µM,,27.9 µM,,> 100 µM,,68.3 µM,,> 30.1 µM,,> 96.7 µM,,,,> 71.8 µM,,> 100 µM,5.63 µM,
CC(=O)c1cccc(NC(=O)C(=O)c2c(O)c3ccccc3oc2=O)c1,,> 100 µM,,> 100 µM,,> 100 µM,,> 100 µM,,> 100 µM,,,,> 100 µM,,> 100 µM,,> 100 µM,> 100 µM,
O=C1c2ccccc2C(=O)C12CCc1ccccc12,,,,> 100 µM,,> 100 µM,,> 100 µM,,> 100 µM,,,,> 100 µM,,> 100 µM,,> 100 µM,,
O=C(NN1C(=O)CSC1c1cccc(Cl)c1)C(O)c1ccccc1 (centres undefined),> 100 µM,> 100 µM,65 µM,> 100 µM,> 100 µM,> 100 µM,64.5 µM,> 100 µM,> 100 µM,> 100 µM,83.4 µM,> 100 µM,,,27.4 µM,> 100 µM,59.3 µM,> 100 µM,> 100 µM,67.7 µM
Cc1cc(NCc2cc(Nc3ccnc4cc(Cl)ccc34)ccc2F)nc(N2CCOCC2)n1,1.46 µM,6.89 µM,1.32 µM,2.79 µM,3.08 µM,18 µM,3.18 µM,23.9 µM,,,3.2 µM,12.5 µM,2.27 µM,5.44 µM,1.73 µM,6.18 µM,,,4.26 µM,1.79 µM
CN/N=C(/c1nc2ccc([N+](=O)[O-])cc2[nH]c1=O)C(O)c1ccc(C(O)/C(=N\NC)c2nc3ccc([N+](=O)[O-])cc3[nH]c2=O)cc1 (centres undefined),,> 100 µM,,> 100 µM,,> 100 µM,,> 100 µM,,> 100 µM,,,,95.1 µM,,> 100 µM,,> 100 µM,,
COc1ccc(O)c(C(=O)CCC(=O)O)c1,,> 100 µM,,> 100 µM,,> 100 µM,,> 100 µM,,> 10 µM,,,,> 100 µM,,> 100 µM,,> 100 µM,,
CCC1=CCN(c2cc(C)ccn2)OC1c1ccccc1 (centres undefined),,,,> 100 µM,,> 100 µM,,> 100 µM,,> 100 µM,,,,81.7 µM,,> 100 µM,,68 µM,,
C1=Cc2nc1c(-c1ccccc1)c1ccc([nH]1)c(-c1ccccc1)c1nc(c(-c3ccccc3)c3ccc([nH]3)c2-c2ccccc2)C=C1,,> 100 µM,,> 100 µM,,> 100 µM,,> 100 µM,,> 100 µM,,,,> 100 µM,,> 100 µM,,,,
CCOC(=O)C1Cc2ccc3c4c(ccc(c24)C1)CC(C(=O)OCC)C3,,> 100 µM,,> 100 µM,,> 100 µM,,> 100 µM,,> 100 µM,,,,> 100 µM,,> 100 µM,,> 100 µM,,
CC(=O)OC(C(=O)[O][Sn]([CH3])([CH3])[CH3])c1ccccc1 (centres undefined),> 100 µM,> 100 µM,> 100 µM,> 100 µM,> 100 µM,> 100 µM,> 100 µM,> 100 µM,> 100 µM,> 100 µM,,,> 100 µM,> 100 µM,> 100 µM,> 100 µM,,0.959 µM,,
COc1ccc(Nc2nc(Nc3cc(C)[nH]n3)c3cc(OC)c(OC)cc3n2)cc1,,,1.66 µM,3.15 µM,1.35 µM,2.92 µM,1.48 µM,2.94 µM,,,1.03 µM,2.24 µM,1.32 µM,2.9 µM,,,1.49 µM,2.83 µM,3.48 µM,1.07 µM
O=C(Nc1cccc2[nH]c(C(F)(F)F)nc12)c1cc(Cl)ccc1Cl,1.63 µM,6.19 µM,2.06 µM,8.06 µM,4.69 µM,> 100 µM,,,2.34 µM,7.37 µM,4.94 µM,> 100 µM,3.87 µM,15.8 µM,3.71 µM,> 100 µM,,,6.43 µM,1.84 µM
C=C1C(=O)OC2C1CCC(C)C1(O)C=CC(=O)C21C (centres undefined),,> 10 µM,,> 10 µM,,> 10 µM,,> 10 µM,,> 10 µM,,,,> 10 µM,,> 10 µM,,> 10 µM,> 10 µM,
CN(C)c1ccc(/C=C(\NC(=O)c2ccccc2)c2nc3ccc4c(c3[nH]2)C(=O)c2ccccc2C4=O)cc1,,> 100 µM,,64.2 µM,,> 100 µM,,> 100 µM,,> 100 µM,,,,> 100 µM,,> 100 µM,,93.8 µM,,
CC(=O)c1ccc(NC(=O)C(=O)C(C(=O)/C=C/c2ccccc2)C2OC(=O)c3ccccc32)cc1 (centres undefined),,> 100 µM,,> 100 µM,,> 100 µM,,> 100 µM,,> 100 µM,,,,> 100 µM,,> 100 µM,,> 100 µM,,
COC(=O)C(=O)C(CC(=O)Nc1ccc(C)cc1)C(=O)OC (centres undefined),,,,,,> 100 µM,,> 100 µM,,> 100 µM,,,,> 100 µM,,> 100 µM,,> 100 µM,,
